Laboratory results taken from patent publication US8329730B2, “Compounds” (Glaxo Group Limited, priority 2008, dated 2012).
Structures can show the parent of a compound that is named as a salt.

The compounds below were run against T1, human S1P1 receptor (Homo sapiens, UniProt P21453) (assay: S1P1 GTPγS binding assay (and alternative method)). Conditions: in one of the above S1P1 GTPγS binding assays (first or alternative method, RH7777 membranes).
T1 construct: expressed in transfected cells; membranes
T1 sequence (P21453 whole entry): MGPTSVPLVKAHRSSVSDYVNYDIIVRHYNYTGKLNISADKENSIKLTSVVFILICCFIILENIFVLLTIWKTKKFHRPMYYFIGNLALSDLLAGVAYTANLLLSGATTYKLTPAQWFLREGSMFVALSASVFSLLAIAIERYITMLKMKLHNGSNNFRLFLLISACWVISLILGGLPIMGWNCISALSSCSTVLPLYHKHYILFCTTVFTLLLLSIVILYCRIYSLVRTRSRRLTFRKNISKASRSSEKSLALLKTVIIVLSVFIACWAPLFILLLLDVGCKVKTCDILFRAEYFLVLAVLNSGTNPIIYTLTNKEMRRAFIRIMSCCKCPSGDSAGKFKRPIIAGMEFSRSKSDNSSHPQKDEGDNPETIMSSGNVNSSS
Assay type: biochemical
Method: For membrane preparations all steps were performed at 4° C. Rat hepatoma cells stably expressing the human S1P1 receptor or Rat Basophilic Leukaemia cells (RBL) stably expressing human S1P3 receptor were grown to 80% confluency before being harvested into 10 ml Phospho-Buffered Saline (PBS) and centrifuged at 1200 rpm […]. After removal of the supernatant, the pellet was re-suspended and cells were homogenised within a glass Waring blender for 2 bursts of 15 secs in 200 mls of buffer (50 mM HEPES, 1 mM leupeptin, 25 μg/ml bacitracin, 1 mM EDTA, 1 mM PMSF, 2 μM pepstatin A). The blender was plunged into ice for 5 mins after the first burst and 10-40 mins after the final burst to allow foam to dissipate. The material was then spun at 500 g for 20 mins and the supernatant spun for 36 mins at 48,000 g. The pellet was resuspended in the same buffer as above but without PMSF and pepstatin A. The material was then forced through a 0.6 mm needle, made up to the required volume, (usually ×4 the volume of the original cell pellet), aliquoted and stored frozen at −80° C. Human S1P1 rat hepatoma membranes (1.5 μg/well) were adhered to a wheatgerm agglutinin (WGA)-coated scintillation proximity assay (SPA) beads (0.125 mg/well) in assay buffer (HEPES 20 mM, MgCl2 10 mM, NaCl 100 mM and pH adjusted to 7.4 using KOH 5M, GDP 10 μM FAC (final assay concentration) and saponin 90 μg/ml FAC was also added). After 30 minutes pre-coupling on ice the bead and membrane suspension was dispensed into a white Greiner polypropylene LV384-well plate (5 μl/well), containing 0.1 μl of the compound. 5 μl/well [^35S]-GTPγS (0.5 nM final radioligand conc) made up in assay buffer was then added to agonist plates. The final assay cocktail […] was then centrifuged at 1000 rpm for 5 minutes then read immediately on a Viewlux reader. All test compounds were dissolved in DMSO at a concentration of 10 mM and were prepared in 100% DMSO using a 1 in 4 dilution step to provide 11 point dose response curves. The dilutions were transferred to the assay plates ensuring that the DMSO concentration was constant across the plate for all assays. All data was normalized to the mean of 16 high and 16 low control wells on each plate. A four parameter curve fit was then applied. S1P1 expressing RH7777 membranes (1.5 μg/well) […] were homogenised by passing through a 23G needle. These were then adhered to WGA-coated SPA beads (0.125 mg/well) in assay buffer (HEPES 20 mM, MgCl2 10 mM, NaCl 100 mM and pH adjusted to 7.4 using KOH 5M). GDP 10 μM FAC and saponin 90 μg/ml FAC were also added After 30 minutes precoupling on ice, the bead and membrane suspension was dispensed into white Greiner polypropylene LV 384-well plates (5 μl/well), containing 0.1 μl of compound. 5 μl/well [^35S]-GTPγS (0.5 nM for S1P1 or 0.3 nM for S1P3 final radioligand concentration) made in assay buffer was then added to the plates. The final assay cocktail (10.1 μl) was then sealed, spun on a centrifuge, then read immediately on a Viewlux instrument.

Row | Compound | EC50
1 | CC(C)Oc1ccc(-c2nc(-c3cccc4c(CCC(=O)O)nccc34)no2)cc1Cl [Example 1, 3-[5-(5-{3-Chloro-4-[(1-methylethyl)oxy]phenyl}-1,2,4-oxadiazol-3-yl)-1-isoquinolinyl]propanoic acid lithium salt] | ≤ 10 nM
2 | CC(C)Oc1ccc(-c2nc(-c3cccc4c(N5CCC(C(=O)O)CC5)nccc34)no2)cc1Cl [Example 4, 1-[5-(5-{3-Chloro-4-[(1-methylethyl)oxy]phenyl}-1,2,4-oxadiazol-3-yl)-1-isoquinolinyl]-4-piperidinecarboxylic acid lithium salt] | ≤ 10 nM
3 | O=C(O)CCc1nccc2c(-c3noc(-c4ccc(OCC(F)(F)F)c(Cl)c4)n3)cccc12 [Example 24, 3-[5-(5-{3-Chloro-4-[(2,2,2-trifluoroethyl)oxy]phenyl}-1,2,4-oxadiazol-3-yl)-1-isoquinolinyl]propanoic acid hydrochloride] | ≤ 10 nM
4 | CC(C)Oc1ccc(-c2nc(-c3cccc4c(CCC(=O)O)nccc34)no2)cc1C#N [Example 26, 3-[5-(5-{3-Cyano-4-[(1-methylethyl)oxy]phenyl}-1,2,4-oxadiazol-3-yl)-1-isoquinolinyl]propanoic acid hydrochloride] | ≤ 10 nM
5 | CC(C)Oc1ncc(-c2nc(-c3cccc4c(CCC(=O)O)nccc34)no2)cc1Cl [Example 27, 3-[5-(5-{5-Chloro-6-[(1-methylethyl)oxy]-3-pyridinyl}-1,2,4-oxadiazol-3-yl)-1-isoquinolinyl]propanoic acid] | ≤ 10 nM
6 | CC(C)Oc1ncc(-c2nc(-c3cccc4c(CCCC(=O)O)nccc34)no2)cc1Cl [Example 30, 4-[5-(5-{5-Chloro-6-[(1-methylethyl)oxy]-3-pyridinyl}-1,2,4-oxadiazol-3-yl)-1-isoquinolinyl]butanoic acid] | ≤ 10 nM

Each compound was assayed against T2, human S1P3 receptor (Homo sapiens, UniProt Q99500) (assay: S1P3 GTPγS binding assay (and alternative method)). Conditions: in one of the above S1P3 GTPγS binding assays (first or alternative method, RBL membranes).
T2 construct: expressed in transfected cells; membranes
T2 sequence (Q99500 whole entry): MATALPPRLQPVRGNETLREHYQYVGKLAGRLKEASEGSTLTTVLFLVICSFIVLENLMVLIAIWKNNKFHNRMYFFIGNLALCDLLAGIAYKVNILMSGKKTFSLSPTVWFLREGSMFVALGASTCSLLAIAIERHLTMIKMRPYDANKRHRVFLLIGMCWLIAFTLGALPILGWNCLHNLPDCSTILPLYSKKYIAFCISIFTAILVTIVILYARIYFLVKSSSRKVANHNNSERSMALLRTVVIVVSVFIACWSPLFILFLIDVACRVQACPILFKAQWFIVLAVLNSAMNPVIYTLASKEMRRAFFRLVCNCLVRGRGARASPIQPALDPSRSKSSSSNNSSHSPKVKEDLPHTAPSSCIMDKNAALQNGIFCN
Assay type: biochemical
Method: For membrane preparations all steps were performed at 4° C. Rat hepatoma cells stably expressing the human S1P1 receptor or Rat Basophilic Leukaemia cells (RBL) stably expressing human S1P3 receptor were grown to 80% confluency before being harvested into 10 ml Phospho-Buffered Saline (PBS) and centrifuged at 1200 rpm […]. After removal of the supernatant, the pellet was re-suspended and cells were homogenised within a glass Waring blender for 2 bursts of 15 secs in 200 mls of buffer (50 mM HEPES, 1 mM leupeptin, 25 μg/ml bacitracin, 1 mM EDTA, 1 mM PMSF, 2 μM pepstatin A). The blender was plunged into ice for 5 mins after the first burst and 10-40 mins after the final burst to allow foam to dissipate. The material was then spun at 500 g for 20 mins and the supernatant spun for 36 mins at 48,000 g. The pellet was resuspended in the same buffer as above but without PMSF and pepstatin A. The material was then forced through a 0.6 mm needle, made up to the required volume, (usually ×4 the volume of the original cell pellet), aliquoted and stored frozen at −80° C. […] The final assay cocktail (10.1 μl) was centrifuged at 1000 rpm for 5 minutes then read immediately on a Viewlux reader. […] The final assay cocktail (10.1 μl) was then sealed, spun on a centrifuge, then read immediately on a Viewlux instrument.

Row | Compound | EC50
7 | CC(C)Oc1ccc(-c2nc(-c3cccc4c(N5CCC(C(=O)O)CC5)nccc34)no2)cc1Cl [Example 4, 1-[5-(5-{3-Chloro-4-[(1-methylethyl)oxy]phenyl}-1,2,4-oxadiazol-3-yl)-1-isoquinolinyl]-4-piperidinecarboxylic acid lithium salt] | 3160 nM
